Patent US20190307770A1, “METHODS FOR TREATING OR PREVENTING CANCER IN A KRAS-VARIANT PATIENT AND FOR […] OF […] PRIMARY BREAST TUMORS” (MIRADX, priority 2014, published 2019)

Assays:
[1] = system: MCF10A KRAS-variant+/- (MT) cell lines; test: Anchorage independent growth (soft agar colony formation) as measure of transformation; type: cell-based, human; details: for level of transformation in anchorage independent growth assay: KRAS-variant (L1 and L2) versus parental (WT) MCF10A lines, comparison of anti-estrogen treatments and estrogen; for fold increased colony formation rate: KRAS-variant MCF10A lines, grown without EGF
Description: Anchorage independent growth was assessed as described previously (Sweasy et al. (2005) PNAS 102:14350-5). After thawing and growing cells until confluence in EGF supplemented media (20 ng/ml), cells were plated into conditions of study for two passages. For estrogen depletion experiments phenol red free DMEM/F12 medium (Invitrogen) and 5% charcoal-stripped horse serum (Thermo Fisher) were used, and Tamoxifen or estrogen was added to a final concentration of 1 μM after the first passage, as appropriate. To plate, 100 μl of MCF10A (WT) or (MT) cells at a density of 400,000 cells/ml were mixed with 2 ml of media for the condition under study containing 2 ml 0.7% noble agar (USB). 1 ml of the cell mixture was added to 1 ml of 1.0% noble agar in a well of a 6-well dish. Cells were fed twice weekly by layering on a 50:50 mixture of media with 0.7% agar for 2 weeks, followed by only media for two-three additional weeks. The number of colonies present in each of ten microscope fields per well from a total of 3 wells per experiment was counted to evaluate transformation and is reported as an average of the 2 separate MT lines.
Next, WT and MT lines were plated in soft agar to test for transformation, as measured by anchorage independent growth. […] The impact of estrogen withdrawal on this transformation was next evaluated by the use of charcoal stripped serum, tamoxifen, or a combination of the two. […] These findings biologically confirm wide spread transformation in normal breast epithelium with acute estrogen withdrawal in breast cells with the KRAS-variant.
Next, different forms of estrogen inhibitors were tested to determine their effects on transformation in the presence of the KRAS-variant. Tamoxifen (ER antagonist in breast), anastrozole (aromatase inhibitor, inhibiting estrogen synthesis), and fulvestrant (a complete ER antagonist) were administered to parental (WT) or two KRAS-variant (L1 and L2) MCF10A cell lines and anchorage independent growth was assessed using the colony formation assay described above.

[2] = post-menopausal use of estrogen alone, median follow up 11.8 years; CI 0.62-0.95, p 0.02; cited from earlier work

Row | Compound | colonies formed relative to the anastrozole or fulvestrant treatments ([1]; KRAS-variant (L1 and L2) MCF10A lines, FIG. 5) [times] | level of transformation in anchorage independent growth assay ([1]; FIG. 5) | fold increased colony formation rate ([1]; Tamoxifen combined with charcoal stripped media) [fold] | fold increased colony formation rate ([1]; in the presence of Tamoxifen (1 μM final)) [fold] | level of transformation in anchorage independent growth assay ([1]; FIG. 5, listed as Estrogen) | transformation (colony formation) after return of estrogen to charcoal-stripped media ([1]; KRAS-variant MT cell lines, charcoal-stripped media, estrogen 1 μM, p=0.018, FIG. 4) | breast cancer incidence versus placebo, HR [2]
1 | CC/C(=C(\c1ccccc1)c1ccc(OCCN(C)C)cc1)c1ccccc1 [Tamoxifen] | ~10 | highest level of transformation | 7.9 | 2 |  |  | 
2 | estrogen |  | prevented transformation |  |  | prevents transformation | decreased transformation | 0.77
